According to ChEMBL document CHEMBL5143690, “Identification of nitrofuranylchalcone tethered benzoxazole-2-amines as potent inhibitors of drug resistant Mycobacterium tuberculosis demonstrating bactericidal efficacy” (Bioorg Med Chem, 2022):
Values after ≈ are worked out from the molar mass of the structure shown.

Legend:
Type in all cases: functional
[1] = tested on: Mycobacterium tuberculosis; assay: Antimycobacterial activity against Mycobacterium tuberculosis H37Rv ATCC 27294 assessed as inhibition of bacterial growth measured after 7 days by resazurin microtitre assay; conditions: H37Rv ATCC 27294, 168 h, time 7 day
Pseudomonas aeruginosa = assay: Antibacterial activity against Pseudomonas aeruginosa ATCC 27853 assessed as reduction in bacterial growth incubated for 16 to 18 hrs by microtiter plate assay; conditions: time 16-18 hrs
Staphylococcus aureus = assay: Antibacterial activity against Staphylococcus aureus ATCC 29213 assessed as reduction in bacterial growth incubated for 16 to 18 hrs by microtiter plate assay; conditions: time 16-18 hrs
Escherichia coli = assay: Antibacterial activity against Escherichia coli ATCC 25922 assessed as reduction in bacterial growth incubated for 16 to 18 hrs by microtiter plate assay; conditions: time 16-18 hrs
Acinetobacter baumannii = assay: Antibacterial activity against Acinetobacter baumannii BAA 1605 assessed as reduction in bacterial growth incubated for 16 to 18 hrs by microtiter plate assay; conditions: time 16-18 hrs
[2] = tested on: Mycolicibacterium fortuitum; assay: Antimycobacterial activity against Mycobacterium fortuitum ATCC 6841 assessed as inhibition of bacterial growth after 48 hrs by resazurin microtitre assay
Klebsiella pneumoniae = assay: Antibacterial activity against Klebsiella pneumoniae BAA 1705 assessed as reduction in bacterial growth incubated for 16 to 18 hrs by microtiter plate assay; conditions: time 16-18 hrs
[3] = tested on: Mycobacteroides abscessus; assay: Antimycobacterial activity against Mycobacterium abscessus ATCC 19977 assessed as inhibition of bacterial growth after 48 hrs by resazurin microtitre assay
Mycobacteroides chelonae = assay: Antimycobacterial activity against Mycobacterium chelonae ATCC 6841 assessed as inhibition of bacterial growth after 48 hrs by resazurin microtitre assay

Row | Structure (SMILES) | MIC [1] [µg/mL] | MIC (Pseudomonas aeruginosa) [µg/mL] | MIC (Staphylococcus aureus) [µg/mL] | MIC (Escherichia coli) [µg/mL] | MIC (Acinetobacter baumannii) [µg/mL] | MIC [2] [µg/mL] | MIC (Klebsiella pneumoniae) [µg/mL] | MIC [3] [µg/mL] | MIC (Mycobacteroides chelonae) [µg/mL]
1 | O=C(/C=C/c1cccc(Cl)c1)c1ccc(Nc2nc3ccccc3o2)cc1 | > 64 | > 64 | > 64 | > 64 | > 64 | > 64 | > 64 | > 64 | > 64
2 | COc1cc(/C=C/C(=O)c2ccc(Nc3nc4cc(Cl)ccc4o3)cc2)cc(OC)c1OC | 8 (≈ 17.2 µM) | > 64 | > 64 | > 64 | > 64 | > 64 | > 64 | > 64 | > 64
3 | O=C(/C=C/c1ccccc1)c1ccc(Nc2nc3ccccc3o2)cc1 | 16 (≈ 47 µM) | > 64 | > 64 | > 64 | > 64 | > 64 | > 64 | > 64 | > 64
4 | COc1cc(OC)c(OC)cc1/C=C/C(=O)c1ccc(Nc2nc3ccccc3o2)cc1 | 16 (≈ 37.2 µM) | > 64 | > 64 | > 64 | > 64 | > 64 | > 64 | > 64 | > 64
5 | COc1ccc(/C=C/C(=O)c2ccc(Nc3nc4ccccc4o3)cc2)c(OC)c1 | > 64 | > 64 | > 64 | > 64 | > 64 | > 64 | > 64 | > 64 | > 64
6 | CC(=O)N1N=C(c2ccc3oc(-c4ccc(O)cc4)nc3c2)CC1c1cccs1 (configuration not stated) | 0.8 (≈ 1.98 µM) |  |  |  |  |  |  |  | 
7 | O=C(/C=C/c1ccc(Br)cc1)c1ccc(Nc2nc3ccccc3o2)cc1 | 64 (≈ 153 µM) | > 64 | > 64 | > 64 | > 64 | > 64 | > 64 | > 64 | > 64
8 | CC[C@@H](CO)NCCN[C@@H](CC)CO [ETHAMBUTOL] | 2 (≈ 9.79 µM) |  |  |  |  |  |  |  | 
9 | COc1cc(/C=C/C(=O)c2ccc(Nc3nc4ccccc4o3)cc2)cc(OC)c1OC | 8 (≈ 18.6 µM) | > 64 | > 64 | > 64 | > 64 | > 64 | > 64 | > 64 | > 64
10 | COc1ccc(C(=O)/C=C/c2cc(OC)c(OC)c(OC)c2)cc1Nc1nc2ccccc2o1 | 64 (≈ 139 µM) | > 64 | > 64 | > 64 | > 64 | > 64 | > 64 | > 64 | > 64
11 | COc1ccc(/C=C/C(=O)c2ccc(Nc3nc4ccccc4o3)cc2)cc1OC | 32 (≈ 79.9 µM) | > 64 | > 64 | > 64 | > 64 | > 64 | > 64 | > 64 | > 64
12 | O=C(/C=C/c1ccc(Cl)cc1Cl)c1ccc(Nc2nc3ccccc3o2)cc1 | > 64 | > 64 | > 64 | > 64 | > 64 | > 64 | > 64 | > 64 | > 64
13 | COc1cc(/C=C/C(=O)c2ccc(Nc3nc4cc([N+](=O)[O-])ccc4o3)cc2)cc(OC)c1OC | 16 (≈ 33.7 µM) | > 64 | > 64 | > 64 | > 64 | > 64 | > 64 | > 64 | > 64
14 | COc1cc(/C=C/C(=O)c2cccc(Nc3nc4ccccc4o3)c2)cc(OC)c1OC | 8 (≈ 18.6 µM) | > 64 | > 64 | > 64 | > 64 | > 64 | > 64 | > 64 | > 64
15 | COc1ccc(OC)c(/C=C/C(=O)c2ccc(Nc3nc4ccccc4o3)cc2)c1 | > 64 | > 64 | > 64 | > 64 | > 64 | > 64 | > 64 | > 64 | > 64
16 | COc1cc(/C=C/C(=O)c2ccc(Nc3nc4cc(C)ccc4o3)cc2)cc(OC)c1OC | 16 (≈ 36 µM) | > 64 | > 64 | > 64 | > 64 | > 64 | > 64 | > 64 | > 64
17 | COc1ccc(/C=C/C(=O)c2ccc(Nc3nc4ccccc4o3)cc2)cc1 | 32 (≈ 86.4 µM) | > 64 | > 64 | > 64 | > 64 | > 64 | > 64 | > 64 | > 64
18 | O=C(/C=C/c1ccc([N+](=O)[O-])cc1)c1ccc(Nc2nc3ccccc3o2)cc1 | 32 (≈ 83 µM) | > 64 | > 64 | > 64 | > 64 | > 64 | > 64 | > 64 | > 64

Row | Structure (SMILES) | MIC [1] [µg/mL] | MIC (Pseudomonas aeruginosa) [µg/mL] | MIC (Staphylococcus aureus) [µg/mL] | MIC (Escherichia coli) [µg/mL] | MIC (Acinetobacter baumannii) [µg/mL] | MIC [2] [µg/mL] | MIC (Klebsiella pneumoniae) [µg/mL] | MIC [3] [µg/mL] | MIC (Mycobacteroides chelonae) [µg/mL]
19 | COc1cc(C2CC(c3ccccc3)=NN2C(C)=O)cc2nc(N)oc12 (configuration not stated) | 0.625 (≈ 1.78 µM) |  |  |  |  |  |  |  | 
20 | O=C(/C=C/c1ccccc1Cl)c1ccc(Nc2nc3ccccc3o2)cc1 | > 64 | > 64 | > 64 | > 64 | > 64 | > 64 | > 64 | > 64 | > 64
21 | O=C(O)c1ccc(/C=C/C(=O)c2ccc(Nc3nc4ccccc4o3)cc2)cc1 | > 64 | > 64 | > 64 | > 64 | > 64 | > 64 | > 64 | > 64 | > 64
22 | CC(=O)N1N=C(c2ccccc2)CC1c1cc(Cl)c2oc(S)nc2c1 (configuration not stated) | 1.25 (≈ 3.36 µM) |  |  |  |  |  |  |  | 
23 | COc1ccc(OC)c(C(=O)/C=C/c2ccc3nccnc3c2)c1 | 3.13 (≈ 9.77 µM) |  |  |  |  |  |  |  | 
24 | CN(C)c1ccc(/C=C/C(=O)c2ccc(Nc3nc4ccccc4o3)cc2)cc1 | 64 (≈ 167 µM) | > 64 | > 64 | > 64 | > 64 | > 64 | > 64 | > 64 | > 64
25 | O=C(/C=C/c1ccccn1)c1ccc(Nc2nc3ccccc3o2)cc1 | 4 (≈ 11.7 µM) | > 64 | > 64 | > 64 | > 64 | > 64 | > 64 | > 64 | > 64
26 | Cc1ccc(/C=C/C(=O)c2ccc(Nc3nc4ccccc4o3)cc2)cc1 | > 64 | > 64 | > 64 | > 64 | > 64 | > 64 | > 64 | > 64 | > 64
27 | CN[C@@H]1[C@H](O[C@H]2[C@H](O[C@H]3[C@H](O)[C@@H](O)[C@H](N=C(N)N)[C@@H](O)[C@@H]3N=C(N)N)O[C@@H](C)[C@]2(O)C=O)O[C@@H](CO)[C@H](O)[C@H]1O [STREPTOMYCIN] | 1 (≈ 1.72 µM) |  |  |  |  |  |  |  | 
28 | O=C(/C=C/c1ccccc1F)c1ccc(Nc2nc3ccccc3o2)cc1 | > 64 | > 64 | > 64 | > 64 | > 64 | > 64 | > 64 | > 64 | > 64
29 | O=C(/C=C/c1cccc([N+](=O)[O-])c1)c1ccc(Nc2nc3ccccc3o2)cc1 | > 64 | > 64 | > 64 | > 64 | > 64 | > 64 | > 64 | > 64 | > 64
30 | COc1cc(/C=C/C(=O)c2ccc(Nc3nc4cc(C(C)(C)C)ccc4o3)cc2)cc(OC)c1OC | 32 (≈ 65.8 µM) | > 64 | > 64 | > 64 | > 64 | > 64 | > 64 | > 64 | > 64
31 | O=C(/C=C/c1ccco1)c1ccc(Nc2nc3ccccc3o2)cc1 | 32 (≈ 96.9 µM) | > 64 | > 64 | > 64 | > 64 | > 64 | > 64 | > 64 | > 64
32 | O=C(/C=C/c1ccncc1)c1ccc(Nc2nc3ccccc3o2)cc1 | 16 (≈ 46.9 µM) | > 64 | > 64 | > 64 | > 64 | > 64 | > 64 | > 64 | > 64
33 | O=C(/C=C/c1ccc(Cl)cc1)c1ccc(Nc2nc3ccccc3o2)cc1 | 64 (≈ 171 µM) | > 64 | > 64 | > 64 | > 64 | > 64 | > 64 | > 64 | > 64
34 | O=C(/C=C/c1ccccc1Br)c1ccc(Nc2nc3ccccc3o2)cc1 | > 64 | > 64 | > 64 | > 64 | > 64 | > 64 | > 64 | > 64 | > 64
35 | NNC(=O)c1ccncc1 [ISONIAZID] | 0.03 (≈ 0.219 µM) |  |  |  |  |  |  |  | 
36 | C[C@H]1COc2c(N3CCN(C)CC3)c(F)cc3c(=O)c(C(=O)O)cn1c23.C[C@H]1COc2c(N3CCN(C)CC3)c(F)cc3c(=O)c(C(=O)O)cn1c23.O [LEVOFLOXACIN] |  |  | 0.125 | 0.0078 |  |  | 64 |  | 
